Measured values reported in ChEMBL document CHEMBL4831501, “Discovery of a potent and selective inhibitor of histone lysine demethylase KDM4D” (Eur J Med Chem, 2021).

How the values were obtained:
[1] = biological target: T1, Lysine-specific demethylase 4D (Homo sapiens) (UniProt Q6B0I6); experiment: Inhibition of human KDM4D expressed in Escherichia coli BL21 (DE3) at 1 uM using biotinylated H3-derived peptide and 2-OG as substrate preincubated for 15 mins followed by substrate addition and measured after 1 hr by AlphaLISA assay; conditions: time 75.0 min
T1 sequence (whole entry): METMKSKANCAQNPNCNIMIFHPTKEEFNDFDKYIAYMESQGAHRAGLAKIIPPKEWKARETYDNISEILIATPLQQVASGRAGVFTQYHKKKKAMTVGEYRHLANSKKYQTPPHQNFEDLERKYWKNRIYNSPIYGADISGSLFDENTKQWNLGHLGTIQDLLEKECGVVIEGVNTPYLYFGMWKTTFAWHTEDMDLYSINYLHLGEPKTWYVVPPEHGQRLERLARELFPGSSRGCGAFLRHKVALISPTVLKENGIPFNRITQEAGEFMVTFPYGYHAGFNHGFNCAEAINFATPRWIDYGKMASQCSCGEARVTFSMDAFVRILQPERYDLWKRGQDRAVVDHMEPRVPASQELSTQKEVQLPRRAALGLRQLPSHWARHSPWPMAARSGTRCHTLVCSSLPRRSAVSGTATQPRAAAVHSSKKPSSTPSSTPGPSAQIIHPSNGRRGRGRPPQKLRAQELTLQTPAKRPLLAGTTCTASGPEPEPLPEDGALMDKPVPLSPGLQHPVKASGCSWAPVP

[2] = biological target: T2, Lysine-specific demethylase 4D (Homo sapiens, UniProt Q6B0I6); experiment: Inhibition of human KDM4D expressed in Escherichia coli BL21 (DE3) using biotinylated H3-derived peptide and 2-OG as substrate preincubated for 15 mins followed by substrate addition and measured after 1 hr by AlphaLISA assay
T2 sequence (Q6B0I6 whole entry): T1 sequence (whole entry)

Row | inhibition [1] [%] | IC50 [2] [µM] | SMILES
1 | 94.6 | 0.509 | Cn1nccc1C(c1cc2c(cc1O)OCO2)N1CC[C@@H](NC(=O)OC(C)(C)C)C1 (stereo partly drawn)
2 | 95.6 | 0.223 | CC(C)(C)OC(=O)N[C@@H]1CCN(C(c2cccc(-c3ccncc3)c2)c2cc3c(cc2O)OCO3)C1 (stereo partly drawn)
3 | -7.31 | – | CC(C)(C)OC(=O)N[C@@H]1CCN(C(c2cc3c(cc2O)OCO3)C2CCCCC2)C1 (stereo partly drawn)
4 | 99.4 | 0.141 | CC(C)(C)OC(=O)N[C@@H]1CCN(C(c2ccc(C#N)cc2)c2cc3c(cc2O)OCO3)C1 (stereo partly drawn)
5 | 99.2 | 0.22 | CC(C)(C)OC(=O)N[C@@H]1CCN(C(c2ccc(-c3cccnc3)cc2)c2cc3c(cc2O)OCO3)C1 (stereo partly drawn)
6 | 99.5 | 0.1 | CC(C)(C)OC(=O)N[C@@H]1CCN(C(c2cc3c(cc2O)OCO3)c2ccnc3ccccc23)C1 (stereo partly drawn)
7 | 100 | 0.045 | CC(C)(C)OC(=O)N[C@@H]1CCN(C(c2ccc(C#N)cn2)c2cc3c(cc2O)OCO3)C1 (stereo partly drawn)
8 | 98.3 | 0.499 | COC(=O)c1cccc(C(c2cc3c(cc2O)OCO3)N2CC[C@@H](NC(=O)OC(C)(C)C)C2)c1 (stereo partly drawn)
9 | 99.7 | 0.351 | O=C(N[C@@H]1CCN(C(c2ccncc2)c2cc3c(cc2O)OCO3)C1)c1cccc(F)c1 (stereo partly drawn)
10 | 93.6 | 0.193 | O=C(NC[C@@H]1CCN(C(c2ccncc2)c2cc3c(cc2O)OCO3)C1)C1CC1 (stereo partly drawn)
11 | 99.4 | 0.445 | COC(=O)c1ccc(C(c2cc3c(cc2O)OCO3)N2CC[C@@H](NC(=O)OC(C)(C)C)C2)cc1 (stereo partly drawn)
12 | 94.2 | 0.187 | O=C(N[C@@H]1CCN(C(c2ccncc2)c2cc3c(cc2O)OCO3)C1)c1ccccc1Cl (stereo partly drawn)
13 | 77.5 | 0.519 | CC(=O)N[C@@H]1CCN(C(c2ccncc2)c2cc3c(cc2O)OCO3)C1 (stereo partly drawn)
14 | 99 | 0.552 | CC(C)(C)OC(=O)N[C@@H]1CCN(C(c2cnccn2)c2cc3c(cc2O)OCO3)C1 (stereo partly drawn)
15 | 44.3 | – | COc1ccc(C(c2ccncc2)N2CC[C@@H](NC(=O)OC(C)(C)C)C2)c(O)c1 (stereo partly drawn)
16 | 96.6 | 0.892 | O=C(N[C@H]1CCN(C(c2ccncc2)c2cc3c(cc2O)OCO3)C1)C1CC1 (stereo partly drawn)
17 | 99.8 | 0.155 | O=C(N[C@@H]1CCN(C(c2ccncc2)c2cc3c(cc2O)OCO3)C1)C1CC1 (stereo partly drawn)
18 | 99.7 | 0.056 | CC(C)(C)OC(=O)N[C@@H]1CCN(C(c2ccc(-n3cncn3)cc2)c2cc3c(cc2O)OCO3)C1 (stereo partly drawn)
19 | 97.2 | 0.135 | CC(C)(C)OC(=O)N[C@@H]1CCN(C(c2ccncc2)c2cc3c(cc2O)OCO3)C1 (stereo partly drawn)
20 | 99.9 | 0.536 | O=C(N[C@@H]1CCN(C(c2ccncc2)c2cc3c(cc2O)OCO3)C1)c1ccccc1 (stereo partly drawn)
21 | 97.1 | 0.165 | CC(C)(C)OC(=O)N[C@@H]1CCN(C(c2ccc(-c3ccncc3)nc2)c2cc3c(cc2O)OCO3)C1 (stereo partly drawn)

Second part, the compound before the results:

Row | SMILES | inhibition [1] [%] | IC50 [2] [µM]
22 | O=C(O[C@@H]1CCN(C(c2ccncc2)c2cc3c(cc2O)OCO3)C1)C1CC1 (stereo partly drawn) | 98.2 | 0.586
23 | CC(C)(C)OC(=O)N[C@@H]1CCN(C(c2ccc(-c3ccccc3)cc2)c2cc3c(cc2O)OCO3)C1 (stereo partly drawn) | 10.6 | –
24 | O=C(NC1CC1)[C@@H]1CCN(C(c2ccncc2)c2cc3c(cc2O)OCO3)C1 (stereo partly drawn) | 98.3 | 0.546
25 | CC(C)(C)OC(=O)N[C@@H]1CCN(C(c2ccncc2)c2cc3c(cc2O)OCCO3)C1 (stereo partly drawn) | 2.78 | –
26 | CCOc1ccccc1C(=O)N[C@@H]1CCN(C(c2ccncc2)c2cc3c(cc2O)OCO3)C1 (stereo partly drawn) | 94.4 | 0.342
27 | COc1ccccc1C(=O)N[C@@H]1CCN(C(c2ccncc2)c2cc3c(cc2O)OCO3)C1 (stereo partly drawn) | 99.1 | 0.399
28 | CC(C)(C)OC(=O)N[C@@H]1CCN(C(c2cccc(-c3ccccn3)c2)c2cc3c(cc2O)OCO3)C1 (stereo partly drawn) | 91.4 | 0.285
29 | O=S(=O)(N[C@@H]1CCN(C(c2ccncc2)c2cc3c(cc2O)OCO3)C1)C1CC1 (stereo partly drawn) | 99.3 | 0.577
30 | CC(C)(C)C(=O)N[C@@H]1CCN(C(c2ccncc2)c2cc3c(cc2O)OCO3)C1 (stereo partly drawn) | 98.7 | 0.664
31 | COc1cc(O)c(C(c2ccncc2)N2CC[C@@H](NC(=O)OC(C)(C)C)C2)cc1OC (stereo partly drawn) | 98.6 | 0.632
32 | CC(C)(C)OC(=O)N[C@@H]1CCN(C(c2cccc(-c3cccnc3)c2)c2cc3c(cc2O)OCO3)C1 (stereo partly drawn) | 96.2 | 0.184
33 | O=C(N[C@@H]1CCN(C(c2ccncc2)c2cc3c(cc2O)OCO3)C1)c1ccccc1F (stereo partly drawn) | 96.6 | 0.437
34 | CC(C)(C)OC(=O)N[C@@H]1CCN(C(c2cc3c(cc2O)OCO3)c2ccc(F)cc2Cl)C1 (stereo partly drawn) | 98.5 | 0.117
35 | CC(C)(C)OC(=O)N[C@@H]1CCN(C(c2cccc(-n3ccnc3)c2)c2cc3c(cc2O)OCO3)C1 (stereo partly drawn) | 99.7 | 0.109
36 | CC(C)(C)OC(=O)N[C@@H]1CCN(C(c2cc3c(cc2O)OCO3)c2ccc(F)cc2F)C1 (stereo partly drawn) | 97.3 | 0.173
37 | CC(C)(C)OC(=O)N[C@@H]1CCN(C(c2ccc(F)cc2)c2cc3c(cc2O)OCO3)C1 (stereo partly drawn) | 98.2 | 0.192
38 | Cc1nccn1-c1ccc(C(c2cc3c(cc2O)OCO3)N2CC[C@@H](NC(=O)OC(C)(C)C)C2)cc1 (stereo partly drawn) | 99.8 | 0.087
39 | CC(C)C(=O)N[C@@H]1CCN(C(c2ccncc2)c2cc3c(cc2O)OCO3)C1 (stereo partly drawn) | 96.5 | 0.22
40 | CC(C)(C)OC(=O)N[C@@H]1CCN(C(c2ccncc2)c2cc3c(cc2O)OC(C)(C)O3)C1 (stereo partly drawn) | 76 | 0.609
41 | CC(C)(C)OC(=O)N[C@@H]1CCN(C(c2cc3c(cc2O)OCO3)c2ccc(Cl)cc2F)C1 (stereo partly drawn) | 99.3 | 0.111
42 | COc1ccc(OC)c(C(c2ccncc2)N2CC[C@@H](NC(=O)OC(C)(C)C)C2)c1O (stereo partly drawn) | 97.5 | 0.212
43 | CN(C(=O)OC(C)(C)C)[C@@H]1CCN(C(c2ccncc2)c2cc3c(cc2O)OCO3)C1 (stereo partly drawn) | 87.6 | 0.642

Row | SMILES | inhibition [1] [%] | IC50 [2] [µM]
44 | CC(C)(C)OC(=O)N[C@@H]1CCN(Cc2cc3c(cc2O)OCO3)C1 | -4.8 | –
45 | CC(C)(C)OC(=O)N[C@@H]1CCN(C(c2ccc(-c3ccccn3)cc2)c2cc3c(cc2O)OCO3)C1 (stereo partly drawn) | 99.8 | 0.145
46 | COc1cc(O)c(C(c2ccncc2)N2CC[C@@H](NC(=O)OC(C)(C)C)C2)cc1F (stereo partly drawn) | 12.9 | –
47 | O=C(N[C@@H]1CCN(C(c2ccncc2)c2cc3c(cc2O)OCO3)C1)C1CCCCC1 (stereo partly drawn) | 99.2 | 0.528
48 | CC(C)(C)OC(=O)N[C@@H]1CCN(C(c2cccc(C#N)c2)c2cc3c(cc2O)OCO3)C1 (stereo partly drawn) | 96.5 | 0.482
49 | N[C@@H]1CCN(C(c2ccncc2)c2cc3c(cc2O)OCO3)C1 (stereo partly drawn) | 33.6 | 1.75
50 | COc1ccc(O)c(C(c2ccncc2)N2CC[C@@H](NC(=O)OC(C)(C)C)C2)c1 (stereo partly drawn) | -3.27 | –
51 | CC(C)(C)NC(=S)N[C@@H]1CCN(C(c2ccncc2)c2cc3c(cc2O)OCO3)C1 (stereo partly drawn) | 96.4 | 0.171
52 | CC(C)(C)NC(=O)N[C@@H]1CCN(C(c2ccncc2)c2cc3c(cc2O)OCO3)C1 (stereo partly drawn) | 97.2 | 0.188
53 | CC(C)(C)OC(=O)N[C@@H]1CCN(C(c2ccc(C#N)c(F)c2)c2cc3c(cc2O)OCO3)C1 (stereo partly drawn) | 98.7 | 0.382
54 | CC(C)(C)OC(=O)N[C@@H]1CCN(C(c2ccc(-c3ccncc3)cn2)c2cc3c(cc2O)OCO3)C1 (stereo partly drawn) | 96.6 | 0.126
55 | CC(C)(C)OC(=O)N[C@@H]1CCN(C(c2ccncc2)c2ccc(C(C)(C)C)cc2O)C1 (stereo partly drawn) | -8.59 | –
56 | CC(C)(C)OC(=O)N[C@@H]1CCN(C(c2cncnc2)c2cc3c(cc2O)OCO3)C1 (stereo partly drawn) | 64.4 | –
57 | COc1cc(C#N)ccc1C(c1cc2c(cc1O)OCO2)N1CC[C@@H](NC(=O)OC(C)(C)C)C1 (stereo partly drawn) | 98.1 | 0.368
58 | COc1cccc(C(=O)N[C@@H]2CCN(C(c3ccncc3)c3cc4c(cc3O)OCO4)C2)c1 (stereo partly drawn) | 99.4 | 0.546
59 | CC(C)(C)OC(=O)N[C@@H]1CCN(C(c2ccncc2)c2ccccc2O)C1 (stereo partly drawn) | 1.9 | –
60 | CC(C)(C)OC(=O)N[C@@H]1CCN(C(c2ccncc2)c2cc3c(cc2O)OC(F)(F)O3)C1 (stereo partly drawn) | 0.88 | –
61 | CCOc1ccc(C(=O)N[C@@H]2CCN(C(c3ccncc3)c3cc4c(cc3O)OCO4)C2)cc1 (stereo partly drawn) | 97.3 | 0.17
62 | CN(C)[C@@H]1CCN(C(c2ccncc2)c2cc3c(cc2O)OCO3)C1 (stereo partly drawn) | 95 | 0.2
63 | CC(C)(C)OC(=O)N[C@@H]1CCN(C(c2ccc(-n3cccc3)cc2)c2cc3c(cc2O)OCO3)C1 (stereo partly drawn) | 95.6 | 0.444
64 | CC(C)(C)OC(=O)N[C@@H]1CCN(C(c2cc3c(cc2O)OCO3)c2ccc(C#N)cc2F)C1 (stereo partly drawn) | 99.4 | 0.33
65 | CC(C)(C)OC(=O)N[C@@H]1CCN(C(c2ccncc2)c2cc3c(cc2O)CCC3)C1 (stereo partly drawn) | -6.01 | –
